Consider two compounds from ChEMBL document CHEMBL4699602, “Stapled and Xenopus Glucagon-Like Peptide 1 (GLP-1)-Based Dual GLP-1/Gastrin Receptor Agonists with Improved Metabolic Benefits in Rodent Models of Obesity and Diabetes” (J Med Chem, 2020).

pEC50: −log10 of the molar value. Calls of active or inactive are those of the source. No cut-off for these calls is given here. Where a SMILES comes first, the peptide text is derived from it.

Data set [1] concerns the target T1, Glucagon-like peptide 1 receptor (Homo sapiens, UniProt P43220). Put plainly: Agonist activity at human GLP-1R expressed in HEK293 cells assessed as stimulation of cAMP accumulation incubated for 20 mins in presence of 4.4% HSA. The format is functional, cell-based.
A further data set has as its target serum albumin (Homo sapiens, UniProt P02768). Put plainly: Binding affinity to human serum albumin in PBS pH 7.4 at 100 ug/mL incubated for 2 hrs by LC-MS/MS analysis relative to control. The format is ADME. As to conditions: at 100 µg/mL, read-out: PB (converted).
In data set [2] the test system is Mus musculus. Put plainly: Reduction in fasted hyperglycemia in C57BL/6 mouse model of diet induced obesity at 25 nmol/kg, sc BID for 1 week relative to control. The format is functional, organism-based. To be noted: time 1.0 weeks.
For data set [3], the system named is Mus musculus. Put plainly: Reduction in food intake in C57BL/6 mouse model of diet induced obesity at 25 nmol/kg, sc BID for 1 week relative to control. Format: functional, organism-based. As to conditions: time 1.0 weeks.
The test system of data set [4] is Mus musculus. Put plainly: Hypoglycemic activity in non-fasted db/db mouse assessed as decrease in blood glucose concentration at 25 nmol/kg, sc by OGTT method. The format is functional, organism-based.
In data set [5] the test system is Mus musculus. Put plainly: Reduction in body weight in C57BL/6 mouse model of diet induced obesity at 25 nmol/kg, sc BID for 1 week relative to control. Format: functional. Set-up: scale not given: the % may be the effect or the level left. As to conditions: time 1 weeks.
The target of data set [6] is T1, Glucagon-like peptide 1 receptor. Put plainly: Ratio of EC50 for agonist activity at human GLP-1R expressed in HEK293 cells in presence of 4.4% HSA to EC50 for agonist activity at human GLP-1R expressed in HEK293 cells in presence of 0% HSA. Format: cell-based.
For data set [7] the target is unchanged. Put plainly: Agonist activity at human GLP-1R expressed in HEK293 cells assessed as stimulation of cAMP accumulation incubated for 20 mins in presence of 0% HSA. Format: functional, cell-based. For orientation: Cyclic AMP is a second messenger, typically raised through Gs and lowered through Gi signalling.

T1 sequence (P43220 whole entry): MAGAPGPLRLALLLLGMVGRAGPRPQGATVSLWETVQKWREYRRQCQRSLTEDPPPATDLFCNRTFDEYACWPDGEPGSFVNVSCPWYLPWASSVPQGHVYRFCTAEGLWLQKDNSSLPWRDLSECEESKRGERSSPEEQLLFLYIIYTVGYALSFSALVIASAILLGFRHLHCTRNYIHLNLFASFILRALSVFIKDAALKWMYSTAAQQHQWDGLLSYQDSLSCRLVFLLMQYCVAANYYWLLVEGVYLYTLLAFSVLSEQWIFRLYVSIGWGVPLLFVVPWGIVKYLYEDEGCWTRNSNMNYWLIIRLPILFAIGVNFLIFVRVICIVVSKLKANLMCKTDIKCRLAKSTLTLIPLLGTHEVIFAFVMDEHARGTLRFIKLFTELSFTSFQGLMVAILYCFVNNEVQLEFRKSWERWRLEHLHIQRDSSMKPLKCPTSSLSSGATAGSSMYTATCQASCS
Sequence of serum albumin (P02768 whole entry): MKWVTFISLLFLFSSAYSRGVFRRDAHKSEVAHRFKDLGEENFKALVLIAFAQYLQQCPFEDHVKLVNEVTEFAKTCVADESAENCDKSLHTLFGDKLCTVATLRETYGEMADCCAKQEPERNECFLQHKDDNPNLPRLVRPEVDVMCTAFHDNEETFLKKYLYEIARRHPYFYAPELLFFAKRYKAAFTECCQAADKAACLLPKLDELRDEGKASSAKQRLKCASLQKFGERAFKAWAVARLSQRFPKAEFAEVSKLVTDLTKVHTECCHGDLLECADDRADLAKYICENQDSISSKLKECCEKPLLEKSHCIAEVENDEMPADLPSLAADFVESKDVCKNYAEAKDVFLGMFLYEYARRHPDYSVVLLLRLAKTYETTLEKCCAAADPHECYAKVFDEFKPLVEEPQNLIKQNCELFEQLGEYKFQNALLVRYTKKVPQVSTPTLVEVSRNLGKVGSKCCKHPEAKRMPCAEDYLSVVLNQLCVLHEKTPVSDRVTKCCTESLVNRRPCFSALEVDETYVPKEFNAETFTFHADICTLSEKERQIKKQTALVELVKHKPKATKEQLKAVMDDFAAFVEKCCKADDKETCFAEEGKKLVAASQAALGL

The term pEC50 denotes the EC50 on a negative log10 scale, so that one unit is a factor of ten. `CCCCCCCCCCCCCCCC(=O)NCCCCCCNC(=O)C1CCCCNC(=O)CCN2C(=O)CC(SC[C@H](NC(=O)[C@H](Cc3ccc(O)cc3)NC(=O)[C@H](CCC(=O)O)NC(=O)[C@@H](NC(=O)[C@@H](NC(=O)[C@H](CC(=O)O)NC(=O)[C@H](CC(N)=O)NC(=O)[C@@H](NC(=O)[C@H](Cc3ccc(O)cc3)NC(=O)[C@@H](NC(=O)CNC(=O)[C@H](CCC(=O)O)NC(=O)C(C)(C)NC(=O)[C@@H](N)Cc3c[nH]cn3)[C@@H](C)O)[C@@H](C)O)C(C)C)[C@@H](C)O)C(=O)N[C@@H](CCC(=O)O)C(=O)N[C@@H](CCC(=O)O)C(=O)N[C@@H](CCC(=O)O)C(=O)N[C@@H](C)C(=O)N[C@@H](C)C(=O)N[C@@H](CCCCN)C(=O)N[C@H](C(=O)N[C@@H](Cc3ccccc3)C(=O)N[C@H](C(=O)N[C@@H](CCC(=O)O)C(=O)N[C@@H](Cc3c[nH]c4ccccc34)C(=O)N[C@@H](CC(C)C)C(=O)N[C@H](C(=O)N[C@@H](CCCCN)C(=O)NCC(=O)N[C@@H](CCCCN)C(=O)N3CCC[C@H]3C(=O)N[C@@H](CO)C(=O)N[C@@H](CO)C(=O)NCC(=O)N[C@@H](C)C(=O)N3CCC[C@H]3C(=O)N3CCC[C@H]3C(=O)N3CCC[C@H]3C(=O)N[C@@H](CO)C(N)=O)[C@@H](C)CC)[C@@H](C)CC)CSC3CC(=O)N(CCC(=O)N1)C3=O)C2=O` (stereo partly specified) (HELM PEPTIDE1{H.[Aib].E.G.T.Y.T.N.D.V.T.E.Y.C.E.E.E.A.A.K.C.F.I.E.W.L.I.K.G.K.P.S.S.G.A.P.P.P.S.[am]}|CHEM1{[CCCCCCCCCCCCCCCC(=O)NCCCCCCNC(=O)C(CCCCNC(=O)CCN1C(=O)CC([*:1])C1=O)NC(=O)CCN1C(=O)CC([*:2])C1=O]}$PEPTIDE1,CHEM1,14:R3-1:R1|PEPTIDE1,CHEM1,21:R3-1:R2$$$V2.0): the pEC50 was 9.04 in data set [1] and 10.39 in data set [7]. In addition, the fraction unbound at 2 h, 100 ug/mL at serum albumin is 0.162. Also, the outcome in the data set with Mus musculus [2], in the data set with Mus musculus [3] and in the data set with Mus musculus [4] was Active. The Activity in the data set with Mus musculus [5] turned out to be 14.4%. Besides, the Ratio EC50 in data set [6] was found to be 22.2.
For `CCCCCCCCCCCCCCCC(=O)NCCCCCCNC(=O)C1CCCCNC(=O)CCN2C(=O)CC(SC[C@H](NC(=O)[C@H](CCCCN)NC(=O)[C@H](C)NC(=O)[C@H](C)NC(=O)[C@H](CCC(=O)O)NC(=O)[C@H](CCC(=O)O)NC(=O)[C@H](CCC(=O)O)NC(=O)[C@H](CC(C)C)NC(=O)[C@H](Cc3ccc(O)cc3)NC(=O)[C@H](CCC(=O)O)NC(=O)[C@@H](NC(=O)[C@@H](NC(=O)[C@H](CC(=O)O)NC(=O)[C@H](CC(N)=O)NC(=O)[C@@H](NC(=O)[C@H](Cc3ccc(O)cc3)NC(=O)[C@@H](NC(=O)CNC(=O)[C@H](CCC(=O)O)NC(=O)C(C)(C)NC(=O)[C@@H](N)Cc3c[nH]cn3)[C@@H](C)O)[C@@H](C)O)C(C)C)[C@@H](C)O)C(=O)N[C@@H](Cc3ccccc3)C(=O)N[C@@H]([C@@H](C)CC)C(=O)N[C@@H](CCC(=O)O)C(=O)N[C@@H](Cc3c[nH]c4ccccc34)C(=O)N[C@@H](CC(C)C)C(=O)N[C@@H]([C@@H](C)CC)C(=O)N[C@H](C(=O)NCC(=O)N[C@@H](CCCCN)C(=O)N3CCC[C@H]3C(=O)N[C@@H](CO)C(=O)N[C@@H](CO)C(=O)NCC(=O)N[C@@H](C)C(=O)N3CCC[C@H]3C(=O)N3CCC[C@H]3C(=O)N3CCC[C@H]3C(=O)N[C@@H](CO)C(N)=O)CSC3CC(=O)N(CCC(=O)N1)C3=O)C2=O` (stereo partly specified) (HELM PEPTIDE1{H.[Aib].E.G.T.Y.T.N.D.V.T.E.Y.L.E.E.E.A.A.K.C.F.I.E.W.L.I.C.G.K.P.S.S.G.A.P.P.P.S.[am]}|CHEM1{[CCCCCCCCCCCCCCCC(=O)NCCCCCCNC(=O)C(CCCCNC(=O)CCN1C(=O)CC([*:1])C1=O)NC(=O)CCN1C(=O)CC([*:2])C1=O]}$PEPTIDE1,CHEM1,21:R3-1:R1|PEPTIDE1,CHEM1,28:R3-1:R2$$$V2.0), the pEC50 in data set [1] was 8.89; in data set [7], 10.27. Besides, the fraction unbound at 2 h, 100 ug/mL on serum albumin is 0.15. Further, the result in the data set on Mus musculus [2], with Mus musculus [3] and in the data set on Mus musculus [4] was Active. In addition, the Activity in the data set with Mus musculus [5] amounted to 15.2%. Besides, in data set [6], the Ratio EC50 amounted to 24.1.
